Test results: patent publication US20230407243A1, “GENETIC PLATFORM TO INVESTIGATE THE FUNCTIONS OF BACTERIAL DRUG EFFLUX PUMPS” (priority 2022, published 2023)
Where “and” joins values, the source holds several entries; their conditions need not be identical. Equal entries are not always repeated. Where two headings read alike, the source gives them in different places.

Assays:
Type in all cases: cell-based, Escherichia coli
[1] = tested on: EKO-35 strains producing different efflux pumps (EKO-35 araC::X); experiment: Checkerboard synergy (FICI) of PAβN or NMP with antibiotics
Experimental: (§1) Synergy measurement using checkerboard analysis was performed in 96-well microtiter plates using the microdilution broth method, according to CLSI guidelines (Patel J. B., 2015). The cell inocula were prepared using the colony resuspension method. The minimum inhibitory concentrations (MICs) were defined as the lowest concentration that provided no growth, as determined by measurement of the OD600nm using a Synergy H1 microplate reader (BioTek). Susceptibility testing was performed in MHB II with a final volume of 100 μL. PAI3N (Bachem Americas) was solubilized in MHB II. […] Solvent controls were included in each plate.
(§2) The Fractional Inhibitory Concentration Index (FICI) was used to assess the synergy of PAI3N in combination with different antibiotics. The FICI represents the ΣFIC of each drug. The FICI for each drug was calculated using the following formula: FICI=FICA+FICB=(CA/MICA)+(CB/MICB). Where MICA and MICB are the MICs of drugs A (PAI3N/NMP) and B (antibiotic) alone, and CA and CB are the MICs of the drugs in combination. The effects of PAβN or NMP in combination with antibiotics were classified as: synergistic (FICI<0.5), additive (FICI>0.5-1.0), indifferent (FICI>1.0-2.0), and antagonistic (FICI>2.0). Fold increases in resistance provided by efflux pumps were calculated by dividing the MIC values of strains expressing efflux pumps by the MIC value of EKO-35.

[2] = tested on: ΔtolC-Pore
Experimental: as §1, §2

[3] = tested on: ΔtolC; settings: ΔtolC
Experimental: as §1, §2

[4] = tested on: EKO-35
Experimental: as §1, §2

[5] = tested on: wild-type E. coli K-12; settings: K-12
Experimental: as §1, §2

[6] = tested on: EKO-35 acrBD408A; settings: EKO-35 acrBD408A
Experimental: as §1, §2

[7] = tested on: EKO-35 porinated strain expressing acrF (AcrEF); experiment: Checkerboard synergy (FICI), porinated strain; settings: EKO-35 acrEF Pore; with Fusidic Acid
Experimental: as §1, §2

[8] = tested on: EKO-35-Pore acrBD408A (functionally inactive AcrB variant); experiment: Checkerboard synergy (FICI), porinated strain; settings: EKO-35 acrBD408A Pore; with Ciprofloxacin
Experimental: as §1, §2

[9] = tested on: wild-type K-12-Pore; experiment: Checkerboard synergy (FICI), porinated strain; settings: K-12 Pore
Experimental: as §1, §2

[10] = tested on: EKO-35-Pore strains producing other efflux pumps; experiment: Checkerboard synergy (FICI), porinated strain; settings: EKO-35 mdtEF Pore; NMP alone, one value per checkerboard
Experimental: as §1, §2

[11] = tested on: EKO-35-Pore expressing the P. aeruginosa pump mexCD; experiment: Checkerboard synergy (FICI), porinated strain; settings: EKO-35 mexCD Pore; with Erythromycin
Experimental: as §1, §2

[12] = tested on: EKO-35 porinated strain expressing acrB; experiment: Checkerboard synergy (FICI), porinated strain; settings: EKO-35 acrB Pore
Experimental: as §1, §2

[13] = tested on: EKO-35 porinated strain expressing acrD; experiment: Checkerboard synergy (FICI), porinated strain; settings: EKO-35 acrD Pore; NMP alone, one value per checkerboard
Experimental: as §1, §2

[14] = tested on: EKO-35-Pore; experiment: Checkerboard synergy (FICI), porinated strain; settings: EKO-35 Pore; with Ethidium Bromide
Experimental: as §1, §2

c1ccc2c(CN3CCNCC3)cccc2c1 [NMP, 1-(1-naphthylmethyl)-piperazine]
NMP MICa Combined ([1]; EKO-35 acrB, with Erythromycin): 8 µg/mL | NMP MICa Combined ([1]; EKO-35 acrB, with Linezolid): 64 µg/mL | NMP MICa Combined ([1]; EKO-35 acrEF, with Ciprofloxacin): 64 µg/mL | NMP MICa Combined ([1]; EKO-35 acrEF, with Oxacillin): 64 µg/mL | NMP MICa Combined ([1]; EKO-35 mdtEF, with Erythromycin): 64 µg/mL | NMP MICa Combined ([1]; EKO-35 mexCD, with Erythromycin): 16 µg/mL | NMP MICa Alone ([2]; ΔtolC Pore, NMP alone, one value per checkerboard): 512 µg/mL | NMP MICa Combined ([2]; ΔtolC Pore, with Erythromycin): 256 µg/mL | NMP MICa Combined ([2]; ΔtolC Pore, with Ethidium Bromide): 128 µg/mL | NMP MICa Combined ([2]; ΔtolC Pore, with Linezolid): 256 µg/mL | NMP MICa Combined ([2]; δtolC Pore, with Ciprofloxacin): 256 µg/mL | NMP MICa Combined ([2]; δtolC Pore, with Fusidic Acid): 128 µg/mL | NMP MICa Combined ([2]; δtolC Pore, with Oxacillin): 16 µg/mL | NMP MICa Combined ([3]; with Ciprofloxacin): 512 µg/mL | NMP MICa Combined ([3]; with Erythromycin): 128 µg/mL | NMP MICa Combined ([3]; with Ethidium Bromide): 32 µg/mL | NMP MICa Combined ([3]; with Fusidic Acid): 256 µg/mL | NMP MICa Combined ([3]; with Linezolid): 512 µg/mL | NMP MICa Combined ([3]; with Oxacillin): 8 µg/mL | NMP MICa Alone ([4]; EKO-35, NMP alone, one value per checkerboard): 512 µg/mL and 1024 µg/mL | NMP MICa Combined ([4]; EKO-35, with Ciprofloxacin): 512 µg/mL | NMP MICa Combined ([4]; EKO-35, with Erythromycin): 256 µg/mL | NMP MICa Combined ([4]; EKO-35, with Ethidium Bromide): 512 µg/mL | NMP MICa Combined ([4]; EKO-35, with Fusidic Acid): 256 µg/mL | NMP MICa Combined ([4]; EKO-35, with Linezolid): 16 µg/mL | NMP MICa Combined ([4]; EKO-35, with Oxacillin): 256 µg/mL | susceptibility to the efflux pump inhibitor alone, efflux-deficient strains vs wild-type ([4]; efflux-deficient strains EKO-35, EKO-35 acrBD408A, ΔtolC): comparable to the wild-type strain | NMP MICa Combined ([5]; with Ciprofloxacin): 128 µg/mL | NMP MICa Combined ([5]; with Erythromycin): 128 µg/mL | NMP MICa Combined ([5]; with Ethidium Bromide): 64 µg/mL | NMP MICa Combined ([5]; with Fusidic Acid): 256 µg/mL | NMP MICa Combined ([5]; with Linezolid): 128 µg/mL | NMP MICa Combined ([5]; with Oxacillin): 64 µg/mL | NMP MICa Combined ([6]; with Ciprofloxacin): 64 µg/mL | NMP MICa Combined ([6]; with Linezolid): 8 µg/mL | NMP MICa Combined ([6]; with Oxacillin): 1024 µg/mL | NMP MICa Combined [7]: 64 µg/mL | NMP MICa Combined [8]: 4 µg/mL | NMP MICa Combined ([9]; with Linezolid): 64 µg/mL | NMP MICa Combined ([9]; with Oxacillin): 8 µg/mL | NMP MICa Alone [10]: 256 µg/mL | NMP MICa Combined [11]: 64 µg/mL | NMP MICa Combined ([12]; with Ethidium Bromide): 32 µg/mL | NMP MICa Combined ([12]; with Linezolid): 64 µg/mL | NMP MICa Alone [13]: 256 µg/mL | NMP MICa Combined [14]: 4 µg/mL
